Source: patent publication US20250195513A1, “DEGRADATION OF IRAK4 BY CONJUGATION OF IRAK4 INHIBITORS WITH E3 LIGASE LIGAND AND METHODS OF USE” (BeiGene, Ltd., priority 2022, published 2025)

Tests used:
Assay type in all cases: cell-based
IRAK4 [1] = target: T1, IRAK4 (Homo sapiens, UniProt Q9NWZ3); assay: IRAK4 Degradation Assay with Human Serum (Karpas299, HTRF/TR-FRET); conditions: Karpas-299 in human serum, 24 hrs treatment; for DC50: read-out: IRAK4 degradtion with human serum assay DC50; for Dmax: read-out: IRAK4 degradtion with human serum assay Dmax (%)
T1 construct: endogenous in cells; host or cells: Karpas299
T1 sequence (Q9NWZ3 1-460): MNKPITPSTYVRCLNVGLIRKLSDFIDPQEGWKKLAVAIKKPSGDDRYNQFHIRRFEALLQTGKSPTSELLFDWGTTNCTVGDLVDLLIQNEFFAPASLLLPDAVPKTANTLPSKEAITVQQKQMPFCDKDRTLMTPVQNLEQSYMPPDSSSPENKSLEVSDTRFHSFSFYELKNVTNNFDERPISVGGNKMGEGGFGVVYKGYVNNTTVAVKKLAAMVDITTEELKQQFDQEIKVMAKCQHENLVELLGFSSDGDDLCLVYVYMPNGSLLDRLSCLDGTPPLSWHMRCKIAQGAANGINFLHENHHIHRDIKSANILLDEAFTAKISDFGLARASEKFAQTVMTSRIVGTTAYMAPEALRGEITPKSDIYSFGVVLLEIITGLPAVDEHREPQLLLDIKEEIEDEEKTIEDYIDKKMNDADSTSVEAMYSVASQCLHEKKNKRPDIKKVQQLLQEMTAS
Procedure, shortened: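 Karpas299 cells in human AB serum (0.2 million/well) treated with serial compound dilutions for 24 h. After lysis, IRAK4 quantified by HTRF (overnight antibody incubation at room temperature, 665/620 nm read). Degradation percentage fitted to four-parameter curve to give DC50.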

IRAK4 [2] = target: T1, IRAK4; assay: IRAK4 Degradation Assay (Karpas299, HTRF/TR-FRET); conditions: Karpas-299 cells; for Dmax: maximum percentage of degradation
Procedure, shortened: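 Karpas299 cells at 0.2 million per well were exposed to serially diluted compounds for 24 h or 5 h, then lysed. IRAK4 remaining in lysates was quantified by HTRF (665/620 nm) after overnight antibody incubation at room temperature. Percent degradation was fitted to a four-parameter curve to give IC50 (DC50).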

[3] = test system: IL-6 production in human PBMC; assay: IL-6 Production Assay in Human PBMC (LPS stimulated); conditions: for IC50 / Emax: Homo sapiens, 5 h; for Emax: read-out: IL-6 (PBMC) 5 h IMax
Protocol: Frozen human PBMC (AllCells) were thawed in RPMI 1640 medium (Thermo Scientific) supplemented with 10% heat-inactivated FBS (Thermo Scientific) and recovered at 37° C. overnight. The next day, PBMC were seeded into 96-well plates at the density of 0.2 million cells per well and treated with compounds for 24 h. Then lipopolysaccharide was added at the final concentration of 10 ng/mL for 5 h. Culture supernatant was collected for subsequent measurement of IL-6 concentration by a TR-FRET-based method (Degorce, François, et al. Current chemical genomics. 2009, 3: 22) as described by the manufacturer manual (Cisbio). FRET signals were measured with PHERAstar FSX reader (BMG Labtech).

[4] = test system: TNF-α production in THP-1 cells; assay: TNF-α Production Assay in THP-1 Cells (LPS stimulated); conditions: for IC50 / Emax: THP-1, 24 h; for Emax: read-out: TNF-α (THP-1) 24 h IMax
Procedure, shortened: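 Cells (0.2 million/well) pretreated with compounds for 24 h, then stimulated with LPS at 1 μg/mL final for 24 h. TNF-α in culture supernatant quantified by TR-FRET immunoassay.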

[5] = 24 h treatment, read-out: IRAK4 in Karpas-299 (24 h) Dmax (%)
[6] = 24 h treatment, read-out: IRAK4 in Karpas-299 (24 h) DC50
[7] = 5 h treatment, read-out: IRAK4 in Karpas-299 (5 h) Dmax (%)
[8] = 5 h treatment, read-out: IRAK4 in Karpas-299 (5 h) DC50
[9] = Homo sapiens, maximum inhibition

Row | Compound | DC50 (IRAK4 [1]) | Dmax (IRAK4 [1]) | Dmax (IRAK4 [2]; [5]) | DC50 (IRAK4 [2]; [6]) | IC50 [3] | Emax ([3]; maximum inhibition) | IC50 [4] | TNF-α (THP-1) 24 h IMax ([4]; maximum inhibition) | IL-6 (PBMC) 5 h IMax ([3]; maximum inhibition) | Dmax (IRAK4 [2]; [7]) | DC50 (IRAK4 [2]; [8]) | IC50 ([4]; Homo sapiens) | Emax [4, 9]
1 | COc1cc2nn([C@H]3CC[C@H](N4CCN(CC5CN(c6cc(F)c([C@H]7CCC(=O)NC7=O)c(F)c6)C5)CC4)CC3)cc2cc1C(=O)Nc1cnc2cccnn12 [Example 345, 2-((1r,4r)-4-(4-((1-(4-((R)-2,6-dioxopiperidin-3-yl)-3,5-difluorophenyl)azetidin-3-yl)methyl)piperazin-1-yl)cyclohexyl)-N-(imidazo[1,2-b]pyridazin-3-yl)-6-methoxy-2H-indazole-5-carboxamide] | 0.7 nM | 96% | 98% | 0.2 nM | 3.5 nM | 60% | – | – | – | – | – | – | –
2 | CC[C@@H]1[C@H](F)C(=O)N[C@@H]1COc1nccc2cc(C(N)=O)c(OC)cc12 [PF-06650833] | – | – | – | – | – | – | 19 nM | 67% | <50% | – | – | – | –
3 | CC(C)(O)c1cc2nn([C@H]3CC[C@H](N4CCN([C@H]5C[C@@H](c6cc(F)c([C@H]7CCC(=O)NC7=O)c(F)c6)C5)CC4)CC3)cc2cc1NC(=O)c1ccc2cc(C#N)cnn12 [Example 363, 3-cyano-N-(2-((1S,4r)-4-(4-((1S,3S)-3-(4-((R)-2,6-dioxopiperidin-3-yl)-3,5-difluorophenyl)cyclobutyl)piperazin-1-yl)cyclohexyl)-6-(2-hydroxypropan-2-yl)-2H-indazol-5-yl)pyrrolo[1,2-b]pyridazine-7-carboxamide] | 5.9 nM | 97% | 96% | 0.8 nM | 2.2 nM | 67% | – | – | – | 95% | 1.2 nM | – | –
4 | CC(C)(O)c1cc2nn([C@H]3CC[C@H](N4C[C@@H]5CN(CCc6cc(F)c([C@H]7CCC(=O)NC7=O)c(F)c6)C[C@H]5C4)CC3)cc2cc1NC(=O)c1ccc2cc(C#N)cnn12 [Example 362, 3-cyano-N-(2-((1S,4r)-4-((3aS,6aS)-5-(4-((R)-2,6-dioxopiperidin-3-yl)-3,5-difluorophenethyl)hexahydropyrrolo[3,4-c]pyrrol-2(1H)-yl)cyclohexyl)-6-(2-hydroxypropan-2-yl)-2H-indazol-5-yl)pyrrolo[1,2-b]pyridazine-7-carboxamide] | 5.1 nM | 97% | 98% | 2.5 nM | 6 nM | 71% | – | – | – | – | – | – | –
5 | CC(C)(O)c1cc2nn([C@H]3CC[C@H](N4CCN([C@H]5C[C@H](c6ccc(N[C@H]7CCC(=O)NC7=O)cc6)C5)CC4)CC3)cc2cc1NC(=O)c1ccc2cc(C#N)cnn12 [Example 274, 3-cyano-N-(2-((1R,4r)-4-(4-((1S,3R)-3-(4-(((S)-2,6-dioxopiperidin-3-yl)amino)phenyl)cyclobutyl)piperazin-1-yl)cyclohexyl)-6-(2-hydroxypropan-2-yl)-2H-indazol-5-yl)pyrrolo[1,2-b]pyridazine-7-carboxamide] | 3.7 nM | 99% | 97% | 1.6 nM | 2 nM | 64% | – | – | – | 97% | 9.8 nM | – | –
6 | CC(C)(O)c1cc2nn(C3CCC(N4C[C@@H]5CN(C6CN(c7cc(F)c([C@H]8CCC(=O)NC8=O)c(F)c7)C6)C[C@H]5C4)CC3)cc2cc1NC(=O)c1ccc2cc(C#N)cnn12 (stereo partly drawn) [Example 360, 3-cyano-N-(2-((1R,4r)-4-((3aR,6aR)-5-(1-(4-((R)-2,6-dioxopiperidin-3-yl)-3,5-difluorophenyl)azetidin-3-yl)hexahydropyrrolo[3,4-c]pyrrol-2(1H)-yl)cyclohexyl)-6-(2-hydroxypropan-2-yl)-2H-indazol-5-yl)pyrrolo[1,2-b]pyridazine-7-carboxamide] | 1.8 nM | 98% | 97% | 0.6 nM | 0.6 nM | 67% | – | – | – | – | – | – | –
7 | COC[C@@H]1CN([C@H]2CC[C@H](n3cc4cc(NC(=O)c5ccc6cc(C#N)cnn56)c(C(C)(C)O)cc4n3)CC2)CCN1C1CN(c2cc(F)c([C@H]3CCC(=O)NC3=O)c(F)c2)C1 [Example 387, 3-cyano-N-(2-((1S,4r)-4-((S)-4-(1-(4-((R)-2,6-dioxopiperidin-3-yl)-3,5-difluorophenyl)azetidin-3-yl)-3-(methoxymethyl)piperazin-1-yl)cyclohexyl)-6-(2-hydroxypropan-2-yl)-2H-indazol-5-yl)pyrrolo[1,2-b]pyridazine-7-carboxamide] | 6.9 nM | 95% | 98% | 0.8 nM | 1.7 nM | 53% | – | – | – | 90% | 1.3 nM | – | –
8 | CC(C)(O)c1cc2nn([C@H]3C[C@H](N4CCN(C5CCN(c6cc(F)c([C@H]7CCC(=O)NC7=O)c(F)c6)CC5)CC4)C3)cc2cc1NC(=O)c1ccc2cc(C#N)cnn12 [Example 330, 3-cyano-N-(2-((1R,3r)-3-(4-(1-(4-((R)-2,6-dioxopiperidin-3-yl)-3,5-difluorophenyl)piperidin-4-yl)piperazin-1-yl)cyclobutyl)-6-(2-hydroxypropan-2-yl)-2H-indazol-5-yl)pyrrolo[1,2-b]pyridazine-7-carboxamide] | 10 nM | 98% | 96% | 0.6 nM | – | – | – | – | – | – | – | 19 nM | 89%
9 | CC(C)(O)c1cc2nn([C@H]3CC[C@H](N4CCN(C(=O)[C@@H]5CCN(c6cc(F)c([C@H]7CCC(=O)NC7=O)c(F)c6)C5)CC4)CC3)cc2cc1NC(=O)c1ccc2cc(C#N)cnn12 [Example 181, 3-cyano-N-(2-((1R,4r)-4-(4-((R)-1-(4-((R)-2,6-dioxopiperidin-3-yl)-3,5-difluorophenyl)pyrrolidine-3-carbonyl)piperazin-1-yl)cyclohexyl)-6-(2-hydroxypropan-2-yl)-2H-indazol-5-yl)pyrrolo[1,2-b]pyridazine-7-carboxamide] | 11 nM | 101% | 97% | 0.4 nM | – | – | – | – | – | 97% | 2 nM | 30 nM | 69%
10 | COC[C@@H]1CN(CCc2cc(F)c([C@H]3CCC(=O)NC3=O)c(F)c2)CCN1[C@H]1CC[C@H](n2cc3cc(NC(=O)c4ccc5cc(C#N)cnn45)c(C(C)(C)O)cc3n2)CC1 [Example 325, 3-cyano-N-(2-((1S,4r)-4-((S)-4-(4-((R)-2,6-dioxopiperidin-3-yl)-3,5-difluorophenethyl)-2-(methoxymethyl)piperazin-1-yl)cyclohexyl)-6-(2-hydroxypropan-2-yl)-2H-indazol-5-yl)pyrrolo[1,2-b]pyridazine-7-carboxamide] | 15 nM | 91% | 96% | 0.9 nM | 4.2 nM | 72% | – | – | – | – | – | – | –
11 | CC(C)(O)c1cc2nn([C@H]3CC[C@H](N4CCN(C(=O)CNc5cc(F)c([C@H]6CCC(=O)NC6=O)c(F)c5)CC4)CC3)cc2cc1NC(=O)c1ccc2cc(C#N)cnn12 [Example 193, 3-cyano-N-(2-((1R,4r)-4-(4-((4-((R)-2,6-dioxopiperidin-3-yl)-3,5-difluorophenyl)glycyl)piperazin-1-yl)cyclohexyl)-6-(2-hydroxypropan-2-yl)-2H-indazol-5-yl)pyrrolo[1,2-b]pyridazine-7-carboxamide] | 5.8 nM | 102% | 97% | 0.4 nM | – | – | – | – | – | – | – | 20 nM | 58%
12 | COc1cc(N2CC(C(=O)N3CCN([C@H]4CC[C@H](n5cc6cc(NC(=O)c7ccc8cc(C#N)cnn78)c(C(C)(C)O)cc6n5)CC4)CC3)C2)ccc1[C@H]1CCC(=O)NC1=O [Example 259] | 6.3 nM | 101% | 98% | 0.8 nM | – | – | – | – | – | – | – | 19 nM | 90%
